Measurements taken from patent US7906122B2 (priority 2003, dated 2011).

Test system: the 3 viral strains (pooled HN)
Parameters: species or system BALB/c mice
Conditions: mouse, in vivo

N-palmitoyl D-erythro sphingosyl carbamoyl-spermine [CCS]
immunogenicity of CCS alone compared to CCS/Chol as the vaccine carrier: no difference in immunogenicity
